{"source": "patent US4314061A", "about": "“Certain 3,6-bis-(heteroaminoalkoxy) acridines” (priority 1980, dated 1982)", "key": {"normal mouse bone marrow": {"tested_on": "normal mouse bone marrow", "assay": "Effect on normal mouse bone marrow", "type": "in vivo, C57 BL6 male mice", "details": "24 hours after treatment; test compound oral, Cytoxan intraperitoneal", "protocol": "The effect of drugs on normal mouse bone marrow is evaluated by determining total cell counts of femurs and by the ability of surviving cells to form colonies in semi-solid medium. The test compound is administered orally and the reference drug Cytoxan is administered intraperitoneally to C57 BL6 male mice. One femur from each of three mice per dose level is assayed 24 hours after treatment. Counts of nucleated cells are performed on pooled marrow suspensions and the clonogenic assay is performed by plating 50,000 cells in one ml. of culture medium in each of four culture dishes. The medium to support bone marrow progenitor cell growth is McCoy's medium supplemented with 0.9% methocel, 1.8% human serum albumin, 10% bovine fetal serum and 10% \"conditioned\" L-cell medium. Cultures are incubated at 37° C. in a humidified atmosphere and colonies are counted at seven days."}, "B-16 melanoma": {"tested_on": "B-16 melanoma", "assay": "Potentiation of cyclophosphamide (Cytoxan) activity against B16 melanoma in mice", "type": "in vivo, BDF1 mice", "protocol": "BDF1 male mice were inoculated subcutaneously with 0.25 ml. of a 10% B-16 melanoma homogenate. Cyclophosphamide was administered intraperitoneally at 80 mg./kg. the second day following the day of tumor implantation. Test compounds were given intraperitoneally on days +6, +8 and +10 relative to tumor implantation. […]\nBDF1 male mice inoculated subcutaneously with 0.25 ml. of a 10% tumo\nhomogenate on day 0. Drugs were administered intraperitoneally;\ncyclophosphoamide on day 2, 3,6bis(2-diethylaminoethoxy)acridine\ntrihydrochloride on days 6, 8 and 10.\n^1 Number of survivors over number of mice treated."}, "[1]": {"tested_on": "Rauscher Virus-Induced Leukemia", "assay": "Inhibition of splenomegaly in mice with Rauscher virus-induced leukemia", "type": "in vivo, Balb/c mice"}, "B16 melanoma": {"tested_on": "B16 melanoma", "assay": "Surgical-adjuvant antitumor activity against B16 melanoma implanted subcutaneously in footpads", "type": "in vivo, BDF1 mice", "details": "100 mg/kg intraperitoneal", "protocol": "BDF1 mice were inoculated subcutaneously in the right hind footpad with 5×10^5 viable B16 melanoma cells, on day zero. The drug was prepared in normal saline and administered by the oral route once daily, on days 1, 7, and 13 following tumor implantation, at doses range from 50 mg/kg to 400 mg/kg. A control group of mice received a saline placebo instead of drug, and another group of tumor bearing mice received the positive control drug cyclophosphamide, at 100 mg/kg, by intraperitoneal injection. On the 21st day after tumor implantation, the mice were anesthesized with Nembutal, and the tumor bearing feet were surgically amputated above the ankle joint. The surgical incision was swabbed with alcohol and sealed with stainless steel wound clips. The tumor bearing feet were individually weighed and the average weight of a normal foot (determined by weighing amputated feet from non-tumor bearing mice of the same sex, age, and body weight) was subtracted to obtain the weight of tumor tissue in the amputated feet. Mice were then observed for deaths until the 90th day after tumor implantation. […]\n^1 BDF1 male mice inocluated with 5 × 10^5 B16 melanom\ncells subcutaneously in footpad on day zero;\n(§1) 3,6bis(2-diethylaminoethoxy)acridine trihydrochloride administered orally\n(§2) and Cyclophosphamide intraperitoneally, on days 1, 7, and 13 following\n(§3) ^2 Average tumor weight determined after surgical amputation of tumor\nbearing foot on day 21 following tumor implantation."}, "Lewis lung carcinoma": {"tested_on": "Lewis lung carcinoma", "assay": "Surgical-adjuvant antitumor activity against Lewis lung carcinoma implanted subcutaneously in footpads", "type": "in vivo, BDF1 mice", "details": "100 mg/kg intraperitoneal", "protocol": "BDF1 mice were inoculated subcutaneously in the right hind footpad with 5×10^5 viable Lewis Lung carcinoma cells, on day zero. […] A control group of mice received a saline placebo instead of drug, and another group of tumor bearing mice received the positive control drug cyclophosphamide, at 100 mg/kg, administered by intraperitoneal injection. On the 11th day after tumor implantation, the mice were anesthesized with Nembutal, and the tumor bearing feet surgically amputated above the ankle joint. The surgical incision was swabbed with alcohol and sealed with stainless steel wound clips. The tumor bearing feet were individually weighed and the average weight of a normal foot (determined by weighing amputated feet from non-tumor bearing mice of the same age, sex and body weight) was subtracted to obtain the weight of tumor tissue in the amputated foot. Mice were then observed for deaths until the 90th day after tumor implantation. […]\n^1 BDF1 male mice inoculated subcutaneously in footpad with 5\n× 10^5 Lewis lung tumor cells on day zero;\nas §1, §2, §3\nbearing foot on day 11 following tumor implantation."}, "tumor": {"tested_on": "tumor", "details": "experimental studies in animals; cited from earlier work"}, "[2]": {"tested_on": "malignant melanoma, acute leukemia, lung cancer, breast cancer", "details": "early clinical trials; cited from earlier work"}, "[3]": {"details": "cyclophosphamide 80 mg/kg i.p. alone"}, "[4]": {"details": "cyclophosphamide 80 mg/kg i.p. alone, day 26"}}, "data": [{"molecule": "O=P1(N(CCCl)CCCl)NCCCO1", "note": "(stereo not shown) [Cyclophosphamide, reference compound]", "values": [{"measurement": "Effect on total nucleated cell count of femur marrow, in words", "setting": "normal mouse bone marrow", "value": "depressed the cell count significantly"}, {"measurement": "ILS (Percent increase in life span over control)", "setting": "B-16 melanoma; [3]", "value": 11, "unit": "%"}, {"measurement": "MST (Median Survival Time)", "setting": "B-16 melanoma; [3]", "value": 25.0, "unit": "days"}, {"measurement": "Number of survivors over number of mice treated", "setting": "B-16 melanoma; cyclophosphamide 80 mg/kg i.p. alone, day 21", "value": "8/8"}, {"measurement": "Average tumor weight", "setting": "B-16 melanoma; cyclophosphamide 80 mg/kg i.p. alone, day 21, p <0.05 vs untreated", "value": 1237, "unit": "mg"}, {"measurement": "Average tumor weight", "setting": "B-16 melanoma; [4]", "value": 7458, "unit": "mg"}, {"measurement": "Number of survivors over number of mice treated", "setting": "B-16 melanoma; [4]", "value": "3/8"}, {"measurement": "50% inhibition in local tumor growth, in words", "setting": "B-16 melanoma; monotherapy, i.p., day +26", "value": "failed to do so"}, {"measurement": "% Reduction in splenomegaly", "setting": "[1]; 100 mg/kg", "value": 106, "unit": "%"}, {"measurement": "reduction in splenomegaly", "setting": "[1]; general statement, no dose, relative to placebo treated RLV-infected mice", "value": "≥ 50", "unit": "%"}, {"measurement": "Median survival time", "setting": "B16 melanoma", "value": "> 90.0", "unit": "days"}, {"measurement": "Average tumor weight", "setting": "B16 melanoma; Day +21", "value": 202, "unit": "mg"}, {"measurement": "Average % of tumor weight inhibition", "setting": "B16 melanoma; Day +21, * significant (≥58%)", "value": 67, "unit": "%"}, {"measurement": "No. Survivors/No. Treated", "setting": "B16 melanoma; at +90 days, ** significant", "value": "7/12"}, {"measurement": "% Increased life-span", "setting": "B16 melanoma; + significant (≥25%)", "value": "> 70", "unit": "%"}, {"measurement": "Median survival time", "setting": "Lewis lung carcinoma", "value": "> 90.0", "unit": "days"}, {"measurement": "Average tumor weight", "setting": "Lewis lung carcinoma; Day +11", "value": 93, "unit": "mg"}, {"measurement": "Average % of tumor weight inhibition", "setting": "Lewis lung carcinoma; Day +11, * significant (≥58%)", "value": 75, "unit": "%"}, {"measurement": "No. Survivors/No. Treated", "setting": "Lewis lung carcinoma; at +90 days, ** p < .05", "value": "10/12"}, {"measurement": "% Increased life-span", "setting": "Lewis lung carcinoma; + significant (≥25%)", "value": "> 200", "unit": "%"}]}, {"molecule": "c1ccc([C@H]2CN3CCSC3=N2)cc1", "note": "[levamisole]", "values": [{"measurement": "Stimulation of cellular immunity and tumor regression, in words", "setting": "tumor", "value": "shown to stimulate cellular immunity and to produce tumor regression"}, {"measurement": "Clinical antitumor success, in words", "setting": "[2]", "value": "Some successes have been claimed"}]}]}
